Converted amounts (≈) assume the structure as drawn.
Key:
[1] = tested on: melanoma B-16 tumor cells; assay: Antitumor activity, life span prolongation in mice with intraperitoneally transplanted melanoma B-16 (NCI protocol 1,300); format: in vivo; settings: intraperitoneally once daily for 9 consecutive days
Procedure: Therapeutic tests were carried out in mice according to NCI-protocol 1,300, Cancer Chemother, Reports, Part 3, 1972, Vol. 3, No. 2, in which melanoma B-16 tumor cells had been intraperitoneally transplanted, compound (I) being administered intraperitoneally once daily for 9 consecutive days.

Tetrahymena pyriformis W = assay: Antiprotozoal activity, growth inhibition by serial dilution method; format: cell-based; settings: 28° C., 44 to 48 hours, pH 7.0, serial dilution method
Procedure: Antiprotozoal activity of compound (I) was assayed with Tetrahymena pyriformis W as the test organism and a medium composed of 20 g tryptose-peptone (Difco Co.), 1 g yeast extract, 2 g glucose, 1000 ml distilled water, 10 ml 1 M phosphate buffer (pH 7.0) as the assay medium. The microorganism was incubated at 28° C. for 44 to 48 hours and the growth inhibitory activity of compound (I) was assayed by the serial dilution method.

Row | Structure (SMILES) | Antitumor activities B-16 (T/C%) ([1]; 50 μg/kg) [%] | Antitumor activities B-16 (T/C%) ([1]; 100 μg/kg) [%] | Antitumor activities B-16 (T/C%) ([1]; 200 μg/kg) [%] | MIC (Tetrahymena pyriformis W) [µg/mL] | Antitumor activities B-16 (T/C%) ([1]; 400 μg/kg) [%]
1 | COc1cc2cc(c1Cl)N(C)C(=O)CC(OC(=O)OC(C)C)C1(C)OC1C(C)C1CC(O)(NC(=O)O1)C(OC)C=CC=C(C)C2 (centres unmarked) [Maytansinol 3-isopropylcarbonate, maytansinol 3-isopropylcarbonate] | 150 | 171 | 171 | 4 to 8 (≈ 6.14 to 12.3 µM) | 
2 | COc1cc2cc(c1Cl)N(C)C(=O)CC(OC(=O)Nc1ccccc1)C1(C)OC1C(C)C1CC(O)(NC(=O)O1)C(OC)C=CC=C(C)C2 (centres unmarked) [Maytansinol 3-(N-phenyl)carbamate, maytansinol 3-N-phenylcarbamate] |  | 123 | 151 | ≥ 8 | 161

— patent publication US4263294A, “Maytansinoids, pharmaceutical compositions thereof and method of use thereof” (Takeda Chemical Industries, Ltd., priority 1978, dated 1981)
